Experimental data: US9126976B2 (Merck Sharp & Dohme Corp., priority 2011, dated 2015)
Where two headings read alike, the source gives them in different places.

Biological target: CETP (Homo sapiens (Human), UniProt P11597)
Experiment: Scintillation Proximity Assay (SPA) for CETP activity
Assay type: biochemical
Description: Protocol: Scintillation Proximity Assay (SPA) for CETP Activity
First, low density lipoprotein (LDL) (Meridian) was biotinylated by incubating LDL with biotin for 1 hour on ice, after which it was dialyzed to remove free biotin. Then compounds at varying concentrations were incubated with 15 nM CETP (reagent production group, In Vitro Pharmacology, MRL Rahway) and 50 ug/ml of the biotinylated LDL in 50 mM HEPES, 150 mM NaCl, pH 7.4, for 1 hour at 37° C. The reaction was started by adding 3H-cholesterol ester high density lipoprotein (HDL) (American Radiochemicals Corp) at a concentration of ˜0.6 nM. The reaction proceeded for 2 hours at 37° C., after which time it was quenched by the addition of 12% acetic acid. PVT streptavadin-coated scintillation proximity beads, which had been brought to room temperature, were then added at a concentration of 4 mg/ml. The assay was then mixed and counted after one half hour in a Microbeta plate reader.

CETP, sequence (P11597 18-493): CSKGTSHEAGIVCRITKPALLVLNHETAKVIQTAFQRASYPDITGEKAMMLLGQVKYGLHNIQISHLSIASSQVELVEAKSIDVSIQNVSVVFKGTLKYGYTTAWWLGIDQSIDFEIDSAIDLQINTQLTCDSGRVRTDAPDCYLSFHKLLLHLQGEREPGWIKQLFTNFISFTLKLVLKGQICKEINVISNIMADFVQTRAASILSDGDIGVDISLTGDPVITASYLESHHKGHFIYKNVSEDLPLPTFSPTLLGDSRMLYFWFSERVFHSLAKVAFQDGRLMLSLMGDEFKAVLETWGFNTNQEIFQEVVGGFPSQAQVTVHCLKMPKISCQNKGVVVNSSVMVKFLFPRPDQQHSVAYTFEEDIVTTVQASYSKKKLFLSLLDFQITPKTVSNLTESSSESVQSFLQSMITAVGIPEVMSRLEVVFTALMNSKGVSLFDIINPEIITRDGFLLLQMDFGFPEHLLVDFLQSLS

SMILES | IC50 (read-out: SPA IC50) | IC50 (Table 1, read-out: IC50)
O[C@H](CN1c2ccccc2N(Cc2cccc(OC(F)(F)F)c2)C[C@H]1c1ccc(C(F)(F)F)cc1)C(F)(F)F [Example 11] | 0.004 µM | –
C[C@@H](c1cccc(C(F)(F)F)c1)N1C[C@@H](c2cccc(C(F)(F)F)c2)N(C[C@@H](O)C(F)(F)F)c2ccccc21 [Example 12] | 0.028 µM | –
C[C@H](c1cccc(C(F)(F)F)c1)N1C[C@@H](c2cccc(C(F)(F)F)c2)N(C[C@@H](O)C(F)(F)F)c2ccccc21 [Example 13, (R)-1,1,1-trifluoro-3-((R)-2-(3-(trifluoromethyl)phenyl-4-((R)-1-(3-trifluoromethyl)phenyl)ethyl)-3,4-dihydroquinoxalin-1(2H)-yl)propan-2-ol] | 0.01 µM | –
C[C@@H](c1ccccc1)N1C[C@@H](c2cccc(C(F)(F)F)c2)N(C[C@@H](O)C(F)(F)F)c2ccccc21 [Example 14] | 1.46 µM | –
C[C@H](c1ccccc1)N1C[C@@H](c2cccc(C(F)(F)F)c2)N(C[C@@H](O)C(F)(F)F)c2ccccc21 [Example 15] | 0.014 µM | –
COC(=O)c1cccc([C@@H]2CN(Cc3cccc(OC(F)(F)F)c3)c3ccccc3N2C[C@@H](O)C(F)(F)F)c1 [Example 16] | 0.027 µM | –
O[C@H](CN1c2ccccc2N(Cc2cccc(OC(F)(F)F)c2)C[C@H]1c1cccc(OC(F)(F)C(F)F)c1)C(F)(F)F [Example 18] | 0.015 µM | –
CNC(=O)c1cccc(C2CN(Cc3cccc(OC(F)(F)F)c3)c3ccccc3N2C[C@@H](O)C(F)(F)F)c1 (stereo partly drawn) [Example 19, N-methyl-3-{1-[(R)-3,3,3-trifluoro-2-hydroxypropyl]-4-[3-(trifluoro-methoxy)benzyl]-1,2,3,4-tetrahydroquinoxalin-2-yl}benzamide] | 0.09 µM | –
COc1cccc([C@@H]2CN(Cc3cccc(OC(F)(F)F)c3)c3ccccc3N2C[C@@H](O)C(F)(F)F)c1 [Example 20] | 0.078 µM | –
O[C@H](CN1c2ccccc2N(Cc2cccc(OC(F)(F)F)c2)C[C@H]1c1cccc(OC(F)(F)F)c1)C(F)(F)F [Example 21] | 0.019 µM | –
CS(=O)(=O)c1ccc([C@@H]2CN(Cc3cccc(OC(F)(F)F)c3)c3ccccc3N2C[C@@H](O)C(F)(F)F)cc1 [Example 23] | 0.096 µM | –
N#Cc1cccc([C@@H]2CN(Cc3cccc(OC(F)(F)F)c3)c3ccccc3N2C[C@@H](O)C(F)(F)F)c1 [Example 24] | 0.098 µM | –
O[C@H](CN1c2ccccc2N(Cc2cccc(OC(F)(F)F)c2)C[C@H]1c1cc(C(F)(F)F)cc(C(F)(F)F)c1)C(F)(F)F [Example 25] | 0.77 µM | –
O[C@H](CN1c2ccccc2N(Cc2cccc(OC(F)(F)F)c2)C[C@H]1c1ccc(C(F)(F)F)nc1)C(F)(F)F [Example 26] | 0.024 µM | –
CN(C)c1ncc([C@@H]2CN(Cc3cccc(OC(F)(F)F)c3)c3ccccc3N2C[C@@H](O)C(F)(F)F)cn1 [Example 27] | 0.03 µM | –
Cc1cc([C@@H]2CN(Cc3cccc(OC(F)(F)F)c3)c3ccccc3N2C[C@@H](O)C(F)(F)F)n(C)n1 [Example 28] | 0.39 µM | –
O[C@H](CN1c2ccccc2N(Cc2cccc(Cl)c2Cl)C[C@H]1c1cccc(C(F)(F)F)c1)C(F)(F)F [Example 34, (R)-3-((R)-4-(2,3-dichlorobenzyl)-2-(3-(trifluoromethyl)phenyl)-3,4-dihydroquinoxalin-1(2H)-yl)-1,1,1-trifluoro propan-2-ol] | – | 0.169 µM
O[C@H](CN1c2ccccc2N(CC2CCCCC2)C[C@H]1c1cccc(C(F)(F)F)c1)C(F)(F)F [Example 37, (R)-3-((R)-4-(cyclohexylmethyl)-2-(3-(trifluoromethyl)phenyl)-3,4-dihydroquinoxalin-1(2H)-yl)-1,1,1-trifluoro propan-2-ol] | – | 1.27 µM

Now from value to compound:

IC50 (read-out: SPA IC50) | IC50 (Table 1, read-out: IC50) | SMILES
0.009 µM | – | O[C@H](CN1c2ccccc2N(Cc2cccc(OC(F)(F)F)c2)C[C@H]1c1cccc(C(F)(F)F)c1)C(F)(F)F [Example 10]
0.258 µM | – | O[C@H](CN1c2ccccc2N(Cc2cccc(OC(F)(F)F)c2)C[C@H]1c1cccnc1)C(F)(F)F [Example 22]
– | 0.105 µM | O[C@H](CN1c2ccccc2N(Cc2cc(F)cc(C(F)(F)F)c2)C[C@H]1c1ccccc1)C(F)(F)F [Example 29, (R)-3-((R)-4-(3-fluoro-5-(trifluoromethyl)benzyl)-2-phenyl-3,4-dihydroquinoxalin-1(2H)-yl)-1,1,1-trifluoropropan-2-ol]
– | 1.4 µM | O[C@H](CN1c2ccccc2N(Cc2cccc(Cl)c2)C[C@H]1c1ccccc1)C(F)(F)F [Example 30, (R)-3-((R)-4-(3-chlorobenzyl)-2-phenyl-3,4-dihydroquinoxalin-1(2H)-yl)-1,1,1-trifluoropropan-2-ol]
– | 2.76 µM | O[C@H](CN1c2ccccc2N(Cc2cc(Cl)cc(Cl)c2)C[C@H]1c1ccccc1)C(F)(F)F [Example 31, (R)-3-((R)-4-(3,5-dichlorobenzyl)-2-phenyl-3,4-dihydroquinoxalin-1(2H)-yl)-1,1,1-trifluoropropan-2-ol]
– | 0.012 µM | O[C@H](CN1c2ccccc2N(Cc2cc(Cl)cc(Cl)c2)C[C@H]1c1cccc(C(F)(F)F)c1)C(F)(F)F [Example 32, (R)-3-((R)-4-(3,5-dichlorobenzyl)-2-(3-(trifluoromethyl)phenyl)-3,4-dihydroquinoxalin-1(2H)-yl)-1,1,1-trifluoro propan-2-ol]
– | 0.428 µM | Cc1ccccc1CN1C[C@@H](c2cccc(C(F)(F)F)c2)N(C[C@@H](O)C(F)(F)F)c2ccccc21 [Example 33, (R)-3-((R)-4-(2-methylbenzyl)-2-(3-(trifluoromethyl)phenyl)-3,4-dihydroquinoxalin-1(2H)-yl)-1,1,1-trifluoro propan-2-ol]
– | 1.16 µM | O[C@H](CN1c2ccccc2N(Cc2c(Cl)cccc2Cl)C[C@H]1c1cccc(C(F)(F)F)c1)C(F)(F)F [Example 35, (R)-3-((R)-4-(2,6-dichlorobenzyl)-2-(3-(trifluoromethyl)phenyl)-3,4-dihydroquinoxalin-1(2H)-yl)-1,1,1-trifluoro propan-2-ol]
– | 0.461 µM | O[C@H](CN1c2ccccc2N(Cc2ccsc2)C[C@H]1c1cccc(C(F)(F)F)c1)C(F)(F)F [Example 38, (R)-3-((R)-4-(thiophenyl-3-ylmethyl)-2-(3-(trifluoromethyl)phenyl)3,4-dihydroquinoxalin-1(2H)-yl)-1,1,1-trifluoropropan-2-ol]
– | 0.548 µM | O[C@H](CN1c2ccccc2N(Cc2ccc(Cl)cc2)C[C@H]1c1cccc(C(F)(F)F)c1)C(F)(F)F [Example 39, (2R)-3-(4-(4-chlorobenzyl)-2-(3-(trifluoromethyl)phenyl)-3,4-dihydroquinoxalin-1(2H)-yl)-1,1,1-trifluoropropan-2-ol]
– | 0.0571 µM | O[C@H](CN1c2ccccc2N(Cc2cccc(C(F)(F)F)c2)C[C@H]1c1cccc(C(F)(F)F)c1)C(F)(F)F [Example 40, (2R)-1,1,1-trifluoro-3-(4-(3-(trifluoromethyl)benzyl)-2-(3-(trifluoromethyl)phenyl)-3,4-dihydroquinoxalin-1(2H)-yl)propan-2-ol]
– | 0.0452 µM | O[C@H](CN1c2ccccc2N(Cc2cc(F)cc(C(F)(F)F)c2)C[C@H]1c1cccc(C(F)(F)F)c1)C(F)(F)F [Example 41, (2R)-1,1,1-trifluoro-3-(4-(3-fluoro-5-(trifluoromethyl)benzyl)-2-(3-(trifluoromethyl)phenyl)-3,4-dihydroquinoxalin-1(2H)-yl)propan-2-ol]
